Source: US9096560B2, “5-heterocyclylalkyl-3-hydroxy-2-phenylcyclopent-2-enones as herbicides” (Syngenta Limited, priority 2008, dated 2015)

What was measured:
Format in all cases: in vivo
[1] = tested on: Echinochloa crus-galli (ECHCG); experiment: Example B post-emergence herbicidal test, ECHCG; settings: Echinochloa crus-galli, 312 h, rate 250 g/ha, evaluated after 13 days, scale 0-100, read-out: Post-emergence activity ECHCG (100=total damage to plant; 0=no damage to plant)
Experimental: (§1) Seeds of a variety of test species were sown in standard soil in pots. After cultivation for one day (pre-emergence) or after 8 days cultivation (post-emergence) under controlled conditions in a glasshouse (at 24/16° C., day/night; 14 hours light; 65% humidity), the plants were sprayed with an aqueous spray solution derived from the formulation of the technical active ingredient in acetone/water (50:50) solution containing 0.5% Tween 20 (polyoxyethelyene sorbitan monolaurate, CAS RN 9005-64-5). The test plants were then grown in a glasshouse under controlled conditions in a glasshouse (at 24/16° C., day/night; 14 hours light; 65% humidity) and watered twice daily. After 13 days for pre and post-emergence, the test was evaluated (100=total damage to plant; 0=no damage to plant). Lolium perenne (LOLPE), Alopecurus myosuroides (ALOMY), Echinochloa crus-galli (ECHCG), Avena fatua (AVEFA) Post-Emergence Activity

[2] = tested on: Alopecurus myosuroides (ALOMY); experiment: Example B post-emergence herbicidal test, ALOMY; settings: Alopecurus myosuroides, 312 h, rate 250 g/ha, evaluated after 13 days, scale 0-100, read-out: Post-emergence activity ALOMY (100=total damage to plant; 0=no damage to plant)
Experimental: as §1

Avena fatua (AVEFA) [3] = experiment: Example B post-emergence herbicidal test, AVEFA; settings: Avena fatua, 312 h, rate 250 g/ha, evaluated after 13 days, scale 0-100, read-out: Post-emergence activity AVEFA (100=total damage to plant; 0=no damage to plant)
Experimental: as §1

Lolium perenne (LOLPE) [4] = experiment: Example B post-emergence herbicidal test, LOLPE; settings: Lolium perenne, 312 h, rate 250 g/ha, evaluated after 13 days, scale 0-100, read-out: Post-emergence activity LOLPE (100=total damage to plant; 0=no damage to plant)
Experimental: as §1

Avena fatua (AVEFA) [5] = experiment: Example B pre-emergence herbicidal test, AVEFA; settings: Avena fatua, 312 h, rate 250 g/ha, evaluated after 13 days, 100=total damage to plant, 0=no damage to plant
Experimental: as §1, with “Pre-Emergence” for “Post-Emergence”

[6] = tested on: Echinochloa crus-galli (ECHCG); experiment: Example B pre-emergence herbicidal test, ECHCG; settings: Echinochloa crus-galli, 312 h, rate 250 g/ha, evaluated after 13 days, 100=total damage to plant, 0=no damage to plant
Experimental: as §1, with “Pre-Emergence” for “Post-Emergence”

[7] = tested on: Alopecurus myosuroides (ALOMY); experiment: Example B pre-emergence herbicidal test, ALOMY; settings: Alopecurus myosuroides, 312 h, rate 250 g/ha, evaluated after 13 days, 100=total damage to plant, 0=no damage to plant
Experimental: as §1, with “Pre-Emergence” for “Post-Emergence”

Lolium perenne (LOLPE) [8] = experiment: Example B pre-emergence herbicidal test, LOLPE; settings: Lolium perenne, 312 h, rate 250 g/ha, evaluated after 13 days, 100=total damage to plant, 0=no damage to plant
Experimental: as §1, with “Pre-Emergence” for “Post-Emergence”

| Structure (SMILES) | pest or weed control at 250 g/ha [1] | pest or weed control at 250 g/ha [2] | pest or weed control at 250 g/ha (Avena fatua (AVEFA) [3]) | pest or weed control at 250 g/ha (Lolium perenne (LOLPE) [4]) | pest or weed control at 250 g/ha (Avena fatua (AVEFA) [5]) | pest or weed control at 250 g/ha [6] | pest or weed control at 250 g/ha [7] | pest or weed control at 250 g/ha (Lolium perenne (LOLPE) [8]) |
| --- | --- | --- | --- | --- | --- | --- | --- | --- |
| Cc1cc(C)c(C2C(=O)CC(CC3C[C@@H]4O[C@H]3[C@@H]3C(=O)NC(=O)[C@@H]34)C2=O)c(C)c1 (relative stereo) [Compound T127] | 20% | 20% | 10% | 20% | – | – | – | – |
| COC1=C(c2c(C)cc(C)cc2C)C(=O)C(CC2CCOCC2)C1 (stereo not shown) [Compound P4] | 20% | 60% | 40% | 30% | – | – | – | – |
| Cc1cc(C)c(C2=C(OC(=O)C(C)(C)C)C/C(=C\C3CCSCC3)C2=O)c(C)c1 [Compound P9] | 50% | 30% | 10% | 40% | 0% | 20% | 30% | 40% |
| Cc1cc(C)c(C2=C(OC(=O)C3CC3)CC(CC3CCOC3)C2=O)c(C)c1 (stereo not shown) [Compound P14] | 90% | 90% | 90% | 100% | 80% | 100% | 100% | 100% |
| Cc1cc(C)c(C2=C(OC(=O)C3CCCCC3)CC(CC3CCOC3)C2=O)c(C)c1 (stereo not shown) [Compound P15] | 100% | 100% | 90% | 100% | 90% | 100% | 100% | 100% |
| COc1ccc(C(=O)OC2=C(c3c(C)cc(C)cc3C)C(=O)C(CC3CCOC3)C2)cc1 (stereo not shown) [Compound P18] | 90% | 90% | 90% | 100% | 80% | 90% | 100% | 100% |
| Cc1cc(C)c(C2=C(OC(=O)OCC(C)C)CC(CC3CCOC3)C2=O)c(C)c1 (stereo not shown) [Compound P23] | 90% | 90% | 90% | 100% | 80% | 100% | 100% | 100% |
| Cc1cc(C)c(C2=C(OC(=O)OCC(C)(C)C)CC(CC3CCOC3)C2=O)c(C)c1 (stereo not shown) [Compound P24] | 90% | 90% | 90% | 100% | 90% | 90% | 100% | 100% |
| C=CCOC(=O)OC1=C(c2c(C)cc(C)cc2C)C(=O)C(CC2CCOC2)C1 (stereo not shown) [Compound P25] | 100% | 90% | 90% | 100% | 80% | 90% | 100% | 90% |
| Cc1cc(C)c(C2=C(OC(=O)Oc3ccccc3)CC(CC3CCOC3)C2=O)c(C)c1 (stereo not shown) [Compound P26] | 100% | 100% | 90% | 100% | 80% | 90% | 100% | 100% |
| CCS(=O)(=O)OC1=C(c2c(C)cc(C)cc2C)C(=O)C(CC2CCOC2)C1 (stereo not shown) [Compound P27] | 90% | 80% | 80% | 100% | 80% | 80% | 100% | 100% |
| Cc1cc(C)c(C2=C(OS(=O)(=O)C3CC3)CC(CC3CCOC3)C2=O)c(C)c1 (stereo not shown) [Compound P28] | 60% | 70% | 70% | 100% | 30% | 20% | 70% | 100% |
